Results: patent publication US9823260B2, “Method to increase bioavailability of the delta-opioid receptor for management of pain and neuropsychiatric disorders” (priority 2014, dated 2017)
Where two headings read alike, the source gives them in different places.

What was measured:
[1] = system: PC12 cells expressing SSF-DOR; assay: Fixed cell immunofluorescence assay of DOR localization (intracellular/Golgi retention) in PC12 cells expressing SSF-DOR; assay type: cell-based, rat; conditions: for amount of cells exhibiting intracellular DOR (retention) after inhibitor alone / percentage of cells with internal localization of DOR within the Golgi region: no NGF; for amount of cells exhibiting intracellular DOR (retention) after inhibitor alone: Wortmannin 10 μM, Chelerythrine 5 μM, PP2 10 μM, Akt ½ kinase inhibitor 1 μM; for percentage of cells with internal localization of DOR within the Golgi region: PI3K inhibitor 10 μM alone
Text: PC12 cells undergo neuronal specific signaling and differentiation in response to NGF.
To determine the mechanism regulating NGF-induced DOR retention, pharmacologic inhibition of known NGF-TrkA signaling molecules and quantification of the DOR localization via fixed cell immunofluorescence were employed. […]
Alternatively, it was chosen to use the neuroendocrine PC12 cell line as the model system.
To confirm that the NGF-induced internal localization is retention and not only due to increased protein production in response to NGF, the mechanistic evaluation was continued in the presence of Cycloheximide (CHX, 3 μg/mL) to inhibit new protein synthesis. […] Again referring to FIG. 3, for the evaluation of required downstream signaling targets, pharmacologic inhibition of TrkA effectors was performed to determine the pathway required for NGF-induced retention of DOR.
It was therefore sought to determine if inhibition of PI3K via treatment with Wortmannin alone was sufficient to induce intracellular retention of DOR using a fixed cell immunofluorescence assay.

[2] = system: SSF-DOR expressing PC12 cells; assay: Fluorescence antibody internalization assay of the surface pool of DOR; assay type: cell-based, rat; conditions: 1-hour treatment; NGF 100 ng/mL, Wortmannin 10 μM, LY294002 10 μM, 740Y^PDGFR 25 μg/mL, DADLE 10 μM
Description: To eliminate the possibility that surface localized DOR was being actively internalized following PI3K inhibition, a fluorescence antibody internalization assay was performed in combination with pharmacologic inhibition of PI3K. SSF-DOR expressing PC12 cells were incubated with a cell-impermeable primary M1-Alexa 647 conjugated antibody to label the surface pool of receptors. The cells were treated with pharmacologic agents for 1 hour as in previous experiments, and receptor internalization was determined by adding a cell-impermeable secondary Alexa-488 conjugated antibody that recognizes the M1 primary antibody. The amount of internalization is quantified using a Pearson's Correlation Coefficient to determine the colocalization of the primary and secondary antibodies.

DOR = assay: cAMP EPAC FRET biosensor assay of DOR signaling in live PC12 cells; assay type: cell-based, rat
[3] = system: primary Trigeminal Ganglion (TG) neurons transfected with SSF-DOR; assay: Fixed cell immunofluorescence of DOR localization in primary Trigeminal Ganglion neurons transfected with SSF-DOR; assay type: cell-based, mice
Text: To begin the example, confirmation that SSF-DOR was internally retained and localized with the Golgi complex in primary Trigeminal Ganglion (TG) sensory neurons was desired. First, primary TGs from adult mice were isolated and cultured. The SSF-DOR DNA construct was then transiently transfected into cultured TGs for subsequent localization analysis. Using a fixed-cell immunofluorescence assay, the location of SSF-DOR with an Alexa-488 conjugated anti-Flag M1 antibody was visualized, and the receptor signal was compared to an antibody against the Golgi marker GPP130. […] PC12 cells expressing SSF-DOR have a membrane localized expression pattern with little to no Golgi colocalization when analyzed via fixed cell fluorescence confocal microscopy. […]
By using the neuroendocrine PC12 cell line as our model system, PTEN inhibition was identified as a tool to prevent the internal retention of DOR following NGF administration. […] Graphical quantification of the percentage of DOR localized within the Golgi compared to the total cell DOR fluorescence is shown in FIG. 9 (top), and the Pearson's Correlation Coefficient between the DOR fluorescence and the GPP130 Golgi fluorescence in FIG. 9 (bottom).

[4] = system: SSF-MOR expressed in PC12 cells; assay: Fixed cell immunofluorescence assay of MOR localization in PC12 cells expressing SSF-MOR; assay type: cell-based, rat; conditions: 1-hour; NGF 100 ng/mL, Wortmannin 10 μM, LY294002 10 μM
Description: Previously, it was shown that the NGF-induced retention is specific to DOR and has minimal effect on MOR^37. It was therefore asked if retention of DOR via PI3K inhibition was also specific to DOR. To determine this specificity, the sufficiency of NGF, and PI3K inhibition by Wortmannin or LY294002, to promote intracellular retention of SSF-MOR expressed in PC12 cells was evaluated using the fixed cell immunofluorescence assay. Under basal no treatment conditions, SSF-MOR was prominently localized to the cell surface. Upon NGF (100 ng/mL), Wortmannin (10 μM), or LY294002 (10 μM) treatment for 1-hour, the majority of the SSF-MOR signal was localization to the cell surface with minimal overlap within the Golgi region.

[5] = with NGF and CHX, Y-27632 5 μM, U0126 10 μM, Akt1/2 Kinase Inhibitor 500 nM, U73122 10 μM, Chelerythrine 10 μM, PP2 500 nM

O=C(NCc1c(F)cccc1F)c1sccc1OCc1ccc(Cl)cc1Cl [AS1938909]
DOR retention in combination with NGF versus NGF treatment alone [1]: not significantly different
percentage of cells exhibiting Golgi localized DOR and percentage of DOR fluorescence within the Golgi ([1]; SHIP2 inhibitor AS1938909 10 μM only): significant increase

O=c1[nH]c2ccccc2n1C1CCN(Cc2ccc(-c3nc4cc5nc[nH]c5cc4nc3-c3ccccc3)cc2)CC1 [Akt1/2 Kinase Inhibitor]
amount of cells exhibiting intracellular DOR (retention) after inhibitor alone [1]: did not significantly increase
effect on NGF-induced retention of DOR [1, 5]: no statistical effect

C[C@@H]1C[C@@H]([C@H](O)CC2CC(=O)NC(=O)C2)C(=O)[C@@H](C)C1 [CHX, Cycloheximide]
percentage of SSF-DOR expressing PC12 cells with internal localization of DOR ([1]; CHX 3 μg/mL alone, 1 hour): 16%

COc1ccc2c(c[n+](C)c3c4cc5c(cc4ccc23)OCO5)c1OC [Chelerythrine]
amount of cells exhibiting intracellular DOR (retention) after inhibitor alone [1]: did not significantly increase
effect on NGF-induced retention of DOR [1, 5]: no statistical effect

CC(C)C[C@@H](NC(=O)[C@H](Cc1ccccc1)NC(=O)CNC(=O)[C@@H](C)NC(=O)[C@@H](N)Cc1ccc(O)cc1)C(=O)O [DADLE]
colocalization of primary and secondary antibody (Pearson's Correlation Coefficient; internalization of surface DOR) [2]: minimal antibody colocalization
inhibition of Forskolin induced cAMP by DADLE (DOR; 1 hour NGF pretreatment, Forskolin 5 μM, DADLE 10 μM): 81%

O=c1cc(N2CCOCC2)oc2c(-c3ccccc3)cccc12 [LY294002]
percentage of cells with internal localization of DOR within the Golgi region [1]: 88%

CC(C)(C)n1nc(-c2ccc(Cl)cc2)c2c(N)ncnc21 [PP2]
amount of cells exhibiting intracellular DOR (retention) after inhibitor alone [1]: did not significantly increase
effect on NGF-induced retention of DOR [1, 5]: no statistical effect

CC(C)(C)C(=O)Nc1ccc2c(c1)C(=O)C(=O)c1ccccc1-2 [SF1670]
percentage of DOR fluorescence localized with the Golgi compared to the total DOR fluorescence ([3]; SF1670 alone and in combination with NGF): decreased significantly
effect of PTEN inhibitor on NGF-induced retention of DOR ([1]; with NGF 100 ng/mL, bpV(HOptic) 10 μM): prevented NGF-induced retention of DOR in a dose dependent manner
inhibition of cAMP upon DADLE treatment after CNA blockade and PTEN inhibition (DOR; NGF pre-treatment, CNA blockade, SF1670 10 μM, Forskolin, DADLE): 80%
increase of cAMP inhibition over that obtained after CNA alone (DOR; SF1670 10 μM after CNA versus CNA alone): 61%

N#CC(=C(/N)Sc1ccccc1N)/C(C#N)=C(\N)Sc1ccccc1N [U0126]
effect on NGF-induced retention of DOR [1]: no statistical effect

COc1ccc2c(c1)CC[C@@H]1[C@@H]2CC[C@]2(C)[C@@H](NCCCCCCN3C(=O)C=CC3=O)CC[C@@H]12 [U73122]
effect on NGF-induced retention of DOR [1, 5]: no statistical effect

COC[C@H]1OC(=O)c2coc3c2[C@@]1(C)C1=C(C3=O)[C@@H]2CCC(=O)[C@@]2(C)C[C@H]1OC(C)=O [Wortmannin]
percentage of cells with internal localization of DOR ([1]; NGF 100 ng/ml and Wortmannin 10 μM): 87%
percentage of cells with internal localization of DOR within the Golgi region [1]: 88%
percentage of cells with intracellular retention of DOR ([1]; Wortmannin 10 μM in combination with NGF, 1-hour CHX chase): 97%

C[C@@H](N)[C@H]1CC[C@H](C(=O)Nc2ccncc2)CC1 [Y-27632]
effect on NGF-induced retention of DOR [1, 5]: no statistical effect

NGF: Nerve Growth Factor; initiates internal retention of DOR in PC12 cells via TrkA
change in intracellular retention of MOR (percentage of cells with Golgi localized MOR and percentage of MOR fluorescence within the Golgi) [4]: non-significant change
colocalization of primary and secondary antibody (Pearson's Correlation Coefficient; internalization of surface DOR) [2]: very strong colocalization
colocalization between DOR and GPP130 Golgi marker (Pearson's Correlation Coefficient) ([3]; NGF treatment): significant increase in colocalization
percentage of cells with internal localization of DOR colocalized with the Golgi ([1]; NGF 100 ng/mL, 1 hour (FIG. 3 right)): 80%
percentage of transfected cells with internal localization of DOR ([1]; NGF 100 ng/mL, 1 hour, no CHX): 90%
percentage of cells imaged with internal localization of DOR ([1]; NGF added 1 hour before CHX addition and chased for 1 hour): 80%
